In US20190133124A1, “BACILLUS AND LIPOCHITOOLIGOSACCHARIDE FOR IMPROVING PLANT GROWTH” (NOVOZYMES BIOAG A/S, priority 2016, published 2019):

What was measured:
[1] = tested on: corn seeds (Monsanto, DKC 63-33); assay: Moist chamber system: corn seedling dry weight after seed treatment with Bacillus amyloliquefaciens and Nod factor; format: in vivo
Description: A study was performed to determine the effect of seed treatment of Bacillus amyloliquefaciens, a Nod factor, or a combination of Bacillus amyloliquefaciens and a Nod factor on corn growth. Corn seeds were treated with Bacillus amyloliquefaciens strain SB3281 bacteria alone, an LCO V (C18:1) Nod factor (FIG. 1A) alone, or a combination of the bacterial strain and Nod factor. Seeds treated as above were tested in a system designed to test various parameters of early seed germination. In this system, the seeds were placed on moist germination paper, in petri dishes, in a representative mock moist chamber experiment (for each seed treatment, 3 petri dishes, each with 5 seeds per dish, were used; 10 ml of deionized water was added to the germination paper per dish). The seeds were allowed to grow in the petri dishes at room temperature for approximately 2 weeks. After that time, various parameters of the seedlings were measured. The lengths of roots/shoots were measured in some experiments. In some experiments, the dry weights of the roots/shoots were determined after dissecting roots from shoots, drying the roots/shoots (placed in a coin envelope) in a 70° C. oven for 2 days, and weighing the roots/shoots. The individual biomass per seedling was determined from these measurements in order to find the average biomass per treatment. To obtain the Bacillus amyloliquefaciens bacterium for the study, strain SB3281 (ATCC PTA-7542) was maintained on Standard Methods Agar (“SMA”; Smith River Biologicals; Ferrum, Va., U.S.). Single colonies were selected from SMA and used to inoculate 5 ml of LB medium. Twenty-four hour old LB cultures were used to inoculate a 250 ml flask containing 100 ml of Si medium (per liter contained 9.4 g of yeast extract, 9.4 g of corn syrup solids, 0.5 g of magnesium chloride hexahydrate, 0.2 g of manganese (II) chloride tetrahydrate, 0.2 g of calcium chloride dehydrate, and 0.27 g of sodium hydroxide, pH 7.0). The flask was incubated at 30° C. on a shaker at 165 rpm. Samples of the bacteria were taken from the culture at 7 days (T7). The number of bacteria in the cultures at the various time points was determined by plating serial dilutions from the cultures on SMA plates and the colonies that formed were counted and multiplied by the dilution factor. The number of spores in the cultures were determined by heating aliquots from the cultures at 80° C. in a water bath for 10 minutes to kill vegetative cells. Serial dilutions were plated as above and colony counts multiplied by the dilution factor. Generally, the cultures contained 10^9 bacteria or spores per ml. Corn seeds were treated by applying a total of 500 μl of treatment substances (e.g., bacteria, LCO, etc.) to 50 g of corn seeds (Monsanto, DKC 63-33). The seeds were allowed to dry at room temperature in bags for 3-4 hours before used in the moist chamber experiments. For treatment of seeds with a single substance (e.g., bacteria alone, LCO alone), 500 μl of the bacterial culture was used, or 500 μl of a LCO solution that contained 6 μl of a 10^−8 M LCO stock solution in 100 ml of buffer was used. For treatment of seeds with two substances (e.g., bacteria and an LCO), 250 μl of the bacterial culture and 250 μl of the 6×10^−13 M LCO stock solution was used. Negative control corn seeds were treated with 500 μl of water. […]

[2] = tested on: corn seeds (Monsanto, DKC 63-33); assay: Metro-Mix 830 system (growth chamber): corn seedling dry weight after seed treatment with Bacillus amyloliquefaciens and Myc factor; format: in vivo
Description: A study was performed to determine the effect of Bacillus amyloliquefaciens, LCOs, or combinations of Bacillus amyloliquefaciens and LCOs on corn growth. Corn seeds were treated with Bacillus amyloliquefaciens strain SB3281 bacteria alone, or in combination with an LCO IV (C16:0, S) Myc factor (FIG. 1B). In this study, corn seeds treated with Bacillus amyloliquefaciens alone or Myc factor alone were compared to non-treated control corn seeds. In addition, corn seeds treated with Bacillus amyloliquefaciens and Myc factor were included in the study. Seeds treated as above were tested in a system designed to test various parameters of early emergence of treated seeds. In this system, the treated seeds were planted in Metro-Mix® 830 (Sun Gro Horticulture; […], Mass., U.S.) and grown in a growth chamber (25° C., 60% relative humidity, 18/6 hour light/dark cycle). Germination trays (12 rows of 6 wells) were filled with moist Metro-Mix® 830. Treated seeds were sown into the wells (30 wells per seed treatment) and grown in the growth chamber for 8 days. The seedlings were harvested, and dry weights of roots/shoots from the seedlings were obtained. To measure the dry weight, the soil was removed from the roots, and dry weights of the roots/shoots and biomass per seedling were determined as described in Example 1. To obtain the Bacillus amyloliquefaciens bacterium for the study, strain SB3281 (ATCC PTA-7542) was grown as described in Example 1. Samples of the bacteria were taken from the culture at 24 hrs (T1). The number of bacteria in the cultures at the various time points was determined by plating serial dilutions from the cultures on SMA plates and the colonies that formed were counted and multiplied by the dilution factor. The number of spores in the cultures were determined by heating aliquots from the cultures at 80° C. in a water bath for 10 minutes to kill vegetative cells. Serial dilutions were plated as above and colony counts multiplied by the dilution factor. Corn seeds were treated by applying a total of 500 μl of treatment substances (e.g., bacteria, LCO, etc.) to 50 g of corn seeds (Monsanto, DKC 63-33). The seeds were allowed to dry at room temperature in bags for 3-4 hours before used in the Metro-Mix® experiments. Control seeds were treated with 500 μl of water. Another group of seeds was treated with 500 μl of a Bacillus amyloliquefaciens culture. A third group of seeds was treated with 500 μl of a 10^-9 M solution of Myc factor. A fourth group of seeds was treated with 250 μl of the Bacillus amyloliquefaciens culture and 250 μl of a 10^-9 M solution of Myc factor.

LCO V (C18:1) [Nod factor]
Average individual seedling dry weight ([1]; approximately 2 weeks, T7 culture, single: 500 μl culture or 500 μl 6×10^−13 M LCO, combination: 250 μl + 250 μl, per 50 g seeds): 0.2244 g | Increase in seedling dry weight over control ([1]; difference to control 0.2190 g): 0.0054 g | Increase in seedling dry weight over control (about %) ([1]; rounded): about 2.5% | Effect on corn plant growth (in words) ([1]; seedling dry weight): increased corn plant growth | Percent increase seedling dry weight over control ([1]; vs water-treated control): 2.47%

CCCCCCCCCCCCCCCC(=O)N[C@H]1[C@H](O[C@H]2[C@H](O)[C@@H](NC(C)=O)[C@H](O[C@H]3[C@H](O)[C@@H](NC(C)=O)[C@H](O[C@H]4[C@H](O)[C@@H](NC(C)=O)C(O)O[C@@H]4COS(=O)(=O)O)O[C@@H]3CO)O[C@@H]2CO)O[C@H](CO)[C@@H](O)[C@@H]1O (stereo partly shown) [Myc factor, LCO IV (C16:0, S)]
Average individual seedling dry weight ([2]; Metro-Mix 830, growth chamber 25° C., 8 days, culture grown 1 day (T1), single: 500 μl culture or 500 μl 10^−9 M Myc factor, combination: 250 μl + 250 μl, per 50 g seeds): 0.1921 g | Decrease in seedling dry weight versus control ([2]; difference to control 0.1985 g, Metro-Mix 830): 0.0064 g | Change in seedling dry weight over control (about %) ([2]; rounded, Metro-Mix 830): about −3.2% | Effect on corn plant growth (in words) ([2]; seedling dry weight, Metro-Mix 830): appeared to have a negative effect on corn plant growth | Percent increase seedling dry weight over control ([2]; vs water-treated control, Metro-Mix 830, 8 days): −3.22%
